Laboratory results from US12037344B2, “NLRP3 modulators” (INNATE TUMOR IMMUNITY, INC., priority 2018, dated 2024).
pEC50: −log10 of the molar value. Where two headings read alike, the source gives them in different places.

Legend:
[1] = system: THP-1 cells; experiment: Measurement of IL-1β production, hTRF protocol (second alternative procedure), THP-1 cells; type: cell-based, human; conditions: Homo sapiens, THP-1, IL-1β production, read-out: NLRP3 hILIB EC50
In short: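 Compounds, dilution series starting at a final 10 μM, were incubated 2 hours at 37° C with PMA-differentiated THP-1 cells (50 ng/ml overnight; 50,000 cells/well, 2% FBS RPMI). Released IL-1β quantified in supernatant by hTRF kit with 1:40 antibody dilution, 4° C overnight, 665/615 nm ratio.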

[2] = target: T1, TLR7 (Homo sapiens, UniProt Q9NYK1); experiment: In vitro human TLR7 binding reporter assay (HEK-Blue, NF-kB/AP1-inducible SEAP); type: cell-based; conditions: read-out: TLR7 Agonist EC50
T1 construct: human HEK-Blue cells co-expressing a TLR7 or TLR8 gene
T1 sequence (Q9NYK1 27-1049): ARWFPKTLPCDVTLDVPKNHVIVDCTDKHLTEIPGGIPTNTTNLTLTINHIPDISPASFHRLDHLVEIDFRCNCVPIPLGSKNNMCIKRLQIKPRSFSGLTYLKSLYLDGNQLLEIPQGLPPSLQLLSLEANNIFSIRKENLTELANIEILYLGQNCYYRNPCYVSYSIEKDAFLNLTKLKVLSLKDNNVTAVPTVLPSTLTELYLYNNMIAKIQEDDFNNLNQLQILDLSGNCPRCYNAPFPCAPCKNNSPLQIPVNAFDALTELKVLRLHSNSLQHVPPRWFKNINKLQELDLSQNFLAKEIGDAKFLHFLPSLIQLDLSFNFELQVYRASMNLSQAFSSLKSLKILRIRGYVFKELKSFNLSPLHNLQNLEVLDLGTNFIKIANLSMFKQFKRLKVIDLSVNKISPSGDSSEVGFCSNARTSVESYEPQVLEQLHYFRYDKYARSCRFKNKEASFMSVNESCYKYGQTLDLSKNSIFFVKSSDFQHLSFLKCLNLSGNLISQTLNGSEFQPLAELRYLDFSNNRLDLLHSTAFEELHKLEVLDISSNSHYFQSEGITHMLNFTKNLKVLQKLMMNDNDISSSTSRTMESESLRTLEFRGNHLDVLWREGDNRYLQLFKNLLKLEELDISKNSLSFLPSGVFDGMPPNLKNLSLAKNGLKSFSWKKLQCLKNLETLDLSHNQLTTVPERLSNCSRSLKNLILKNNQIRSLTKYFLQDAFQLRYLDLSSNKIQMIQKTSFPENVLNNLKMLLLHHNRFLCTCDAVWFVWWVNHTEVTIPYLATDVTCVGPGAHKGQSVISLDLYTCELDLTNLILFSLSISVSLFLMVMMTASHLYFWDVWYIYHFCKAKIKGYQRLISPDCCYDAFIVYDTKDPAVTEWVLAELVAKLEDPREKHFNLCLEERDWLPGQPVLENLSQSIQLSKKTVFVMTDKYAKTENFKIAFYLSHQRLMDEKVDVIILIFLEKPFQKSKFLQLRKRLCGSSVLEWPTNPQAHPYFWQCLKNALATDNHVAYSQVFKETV
In short: (§1)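 HEK-Blue cells expressing human TLR7 or TLR8 with NF-kB/AP1-inducible SEAP reporter, plated 24 h, then compound-treated 18 h at 37° C, 5% CO2. EC50 normalized to 100% Ymax set by 50 μM reference standard.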

[3] = target: T2, TLR8 (Homo sapiens, UniProt Q9NR97); experiment: In vitro human TLR8 binding reporter assay (HEK-Blue, NF-kB/AP1-inducible SEAP); type: cell-based; conditions: read-out: TLR8 Agonist EC50
T2 construct: human HEK-Blue cells co-expressing a TLR7 or TLR8 gene
T2 sequence (Q9NR97 27-1041): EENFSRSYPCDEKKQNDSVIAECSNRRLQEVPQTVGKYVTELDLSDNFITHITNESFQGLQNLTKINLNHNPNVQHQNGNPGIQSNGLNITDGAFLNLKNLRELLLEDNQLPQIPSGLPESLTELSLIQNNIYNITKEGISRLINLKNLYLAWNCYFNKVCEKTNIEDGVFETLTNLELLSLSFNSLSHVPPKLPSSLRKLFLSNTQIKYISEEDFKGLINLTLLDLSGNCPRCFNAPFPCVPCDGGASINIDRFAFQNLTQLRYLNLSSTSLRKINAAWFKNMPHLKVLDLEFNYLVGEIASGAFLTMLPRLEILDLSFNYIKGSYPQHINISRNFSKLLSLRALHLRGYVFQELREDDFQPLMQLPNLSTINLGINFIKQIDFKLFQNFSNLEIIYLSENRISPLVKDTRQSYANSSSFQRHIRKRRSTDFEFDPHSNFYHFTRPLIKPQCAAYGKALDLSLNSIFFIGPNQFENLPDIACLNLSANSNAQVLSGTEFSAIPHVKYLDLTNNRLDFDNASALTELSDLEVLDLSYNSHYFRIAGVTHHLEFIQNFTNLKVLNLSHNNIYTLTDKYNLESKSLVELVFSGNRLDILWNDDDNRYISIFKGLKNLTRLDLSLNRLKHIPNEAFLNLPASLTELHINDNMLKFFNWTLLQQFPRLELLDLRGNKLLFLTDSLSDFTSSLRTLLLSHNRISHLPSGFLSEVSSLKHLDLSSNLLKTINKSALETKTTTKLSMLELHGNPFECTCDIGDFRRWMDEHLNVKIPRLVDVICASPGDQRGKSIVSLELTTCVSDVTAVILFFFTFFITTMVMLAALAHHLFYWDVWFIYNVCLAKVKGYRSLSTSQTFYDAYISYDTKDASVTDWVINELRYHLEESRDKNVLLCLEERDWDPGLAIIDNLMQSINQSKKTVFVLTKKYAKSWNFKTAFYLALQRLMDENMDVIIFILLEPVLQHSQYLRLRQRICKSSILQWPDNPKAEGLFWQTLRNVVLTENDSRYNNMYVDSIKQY
In short: as §1

| Compound | pEC50 ([1]; human) | pEC50 ([2]; activity range class) | pEC50 ([3]; activity range class) | pEC50 ([1]; human cells) | pEC50 ([2]; activity range) | pEC50 ([3]; activity range) |
| --- | --- | --- | --- | --- | --- | --- |
| Nc1nc2cc(-c3cc[nH]n3)ccc2c2nn(CCc3c[nH]cn3)cc12 [Example 361] | 6.72 | < 4.00 | < 4.00 | – | – | – |
| Nc1nc2cc(-c3cc[nH]n3)ccc2c2nn(Cc3cscn3)cc12 [Example 362] | 7.15 | < 4.00 | < 4.00 | – | – | – |
| Nc1nc2cc(-c3cc[nH]n3)ccc2c2nn(C[C@@H]3CC(F)(F)CN3)cc12 [Example 363] | 5.74 | < 4.00 | < 4.00 | – | – | – |
| CC(C)OCC(O)Cn1cc2c(N)nc3cc(-c4cc[nH]n4)ccc3c2n1 (stereo not drawn) [Example 371] | 5.71 | < 4.00 | < 4.00 | – | – | – |
| CC(C)(C)OCC(O)Cn1cc2c(N)nc3cc(-c4cc[nH]n4)ccc3c2n1 (stereo not drawn) [Example 375] | 5.39 | < 4.00 | < 4.00 | – | – | – |
| Nc1nc2cc(-c3cc[nH]n3)ccc2c2nn(CCN3CCCC3=O)cc12 [Example 383] | 5.86 | < 4.00 | < 4.00 | – | – | – |
| CS(=O)(=O)CCCn1cc2c(N)nc3cc(-n4cccn4)ccc3c2n1 [Example 387] | 5.64 | < 4.00 | < 4.00 | – | – | – |
| CO[C@@H](CO)Cn1cc2c(N)nc3cc(-n4cccn4)ccc3c2n1 [Example 388] | 6.51 | < 4.00 | < 4.00 | – | – | – |
| Nc1nc2cc(-n3cccn3)ccc2c2nn(C[C@@H](O)CO)cc12 [Example 389] | 6.04 | < 4.00 | < 4.00 | – | – | – |
| Nc1nc2cc(-n3cccn3)ccc2c2nn(CC(F)F)cc12 [Example 390] | 6.46 | < 4.00 | < 4.00 | – | – | – |
| Nc1nc2cc(-n3cccn3)ccc2c2nn(CCc3c[nH]cn3)cc12 [Example 391] | 6.70 | < 4.00 | < 4.00 | – | – | – |
| N#CCCCn1cc2c(N)nc3cc(-c4cc[nH]n4)ccc3c2n1 [Example 392] | 7.10 | < 4.00 | < 4.00 | – | – | – |
| Nc1nc2cc(-c3cc[nH]n3)ccc2c2cn(CCOC(F)F)nc12 [Example 397] | – | – | – | 6.47 | 4.70 to 6.00 | < 4.00 |
| Nc1nc2cc(-c3cc[nH]n3)ccc2c2cn(C[C@@H](O)CO)nc12 [Example 398] | – | – | – | 5.81 | < 4.00 | < 4.00 |
| C[C@H](CO)Cn1cc2c(n1)c(N)nc1cc(-c3cc[nH]n3)ccc12 [Example 399] | – | – | – | 6.64 | < 4.00 | < 4.00 |
| CC[C@@H](O)Cn1ncc2c(N)nc3cc(-c4cc[nH]n4)ccc3c21 [Example 400] | – | – | – | 5.91 | < 4.00 | < 4.00 |
| C[C@H](O)Cn1ncc2c(N)nc3cc(-c4cc[nH]n4)ccc3c21 [Example 401] | – | – | – | 5.58 | < 4.00 | < 4.00 |
| Nc1nc2cc(-c3cc[nH]n3)c(F)cc2c2c1cnn2CCO [Example 403] | – | – | – | 5.42 | < 4.00 | < 4.00 |

More lines, now with the values ahead:

| pEC50 ([1]; human) | pEC50 ([2]; activity range class) | pEC50 ([3]; activity range class) | pEC50 ([1]; human cells) | pEC50 ([2]; activity range) | pEC50 ([3]; activity range) | Compound |
| --- | --- | --- | --- | --- | --- | --- |
| 5.83 | < 4.00 | < 4.00 | – | – | – | Nc1nc2cc(-c3cc[nH]n3)ccc2c2nn(C[C@H](O)CO)cc12 [Example 364] |
| 5.73 | < 4.00 | < 4.00 | – | – | – | Nc1nc2cc(-c3cc[nH]n3)ccc2c2nn(C[C@@H](O)CO)cc12 [Example 365] |
| 6.38 | < 4.00 | < 4.00 | – | – | – | CCC(O)Cn1cc2c(N)nc3cc(-c4cc[nH]n4)ccc3c2n1 (stereo not drawn) [Example 366] |
| 6.64 | < 4.00 | < 4.00 | – | – | – | CC[C@H](O)Cn1cc2c(N)nc3cc(-c4cc[nH]n4)ccc3c2n1 [Example 367] |
| 6.28 | < 4.00 | < 4.00 | – | – | – | CC[C@@H](O)Cn1cc2c(N)nc3cc(-c4cc[nH]n4)ccc3c2n1 [Example 368] |
| 6.72 | < 4.00 | < 4.00 | – | – | – | C[C@H](O)Cn1cc2c(N)nc3cc(-c4cc[nH]n4)ccc3c2n1 [Example 369] |
| 6.42 | < 4.00 | < 4.00 | – | – | – | C[C@@H](O)Cn1cc2c(N)nc3cc(-c4cc[nH]n4)ccc3c2n1 [Example 370] |
| 6.06 | < 4.00 | < 4.00 | – | – | – | COC[C@H](O)Cn1cc2c(N)nc3cc(-c4cc[nH]n4)ccc3c2n1 [Example 372] |
| 5.90 | < 4.00 | < 4.00 | – | – | – | COC[C@@H](O)Cn1cc2c(N)nc3cc(-c4cc[nH]n4)ccc3c2n1 [Example 373] |
| 6.19 | < 4.00 | < 4.00 | – | – | – | CC(C)C(O)Cn1cc2c(N)nc3cc(-c4cc[nH]n4)ccc3c2n1 (stereo not drawn) [Example 374] |
| 6.11 | < 4.00 | < 4.00 | – | – | – | N#CC[C@H](O)Cn1cc2c(N)nc3cc(-c4cc[nH]n4)ccc3c2n1 [Example 380] |
| 6.13 | < 4.00 | < 4.00 | – | – | – | N#CC[C@@H](O)Cn1cc2c(N)nc3cc(-c4cc[nH]n4)ccc3c2n1 [Example 381] |
| 5.27 | < 4.00 | < 4.00 | – | – | – | Nc1nc2cc(-c3cc[nH]n3)ccc2c2nn(C[C@@H]3C[C@H](O)CN3)cc12 [Example 382] |
| 6.06 | < 4.00 | < 4.00 | – | – | – | Nc1nc2cc(-c3cc[nH]n3)ccc2c2nn(C[C@@H]3CCC(=O)N3)cc12 [Example 384] |
| 5.60 | < 4.00 | < 4.00 | – | – | – | Nc1nc2cc(-c3cc[nH]n3)ccc2c2nn(C[C@H]3CCC(=O)N3)cc12 [Example 385] |
| 6.68 | < 4.00 | < 4.00 | – | – | – | Nc1nc2cc(-c3cc[nH]n3)ccc2c2nn(CC3CC3(F)F)cc12 (stereo not drawn) [Example 386] |
| 5.76 | < 4.00 | < 4.00 | – | – | – | Nc1nc2cc(-c3cc[nH]n3)ccc2c2nn([C@H]3CC[C@H](O)CC3)cc12 [Example 393] |
| 6.34 | < 4.00 | < 4.00 | – | – | – | Nc1nc2cc(-c3cc[nH]n3)ccc2c2nn([C@H]3CC[C@@H](O)CC3)cc12 [Example 394] |
| – | – | – | 7.15 | < 4.00 | < 4.00 | N#CCCn1cc2c(N)nc3cc(-c4cc[nH]n4)ccc3c2n1 [Example 395] |
| – | – | – | 6.19 | < 4.00 | < 4.00 | Nc1nc2cc(-c3cc[nH]n3)ccc2c2nn(CCO)cc12 [Example 396] |
